Measurements as given in ChEMBL document CHEMBL2331210, “New 2-benzylsulfanyl-nicotinic acid based 1,3,4-oxadiazoles: their synthesis and biological evaluation” (2013).
≈ marks a conversion by molar mass, not a printed value.

Columns and labels:
UO-31 = test: Antitumor activity against human UO31 cells assessed as cell growth at 0.1 uM; assay type: functional; details: read-out: Activity
TK-10 = test: Antitumor activity against human TK10 cells assessed as cell growth at 0.1 uM; assay type: functional; details: read-out: Activity
SN12C = test: Antitumor activity against human SN12C cells assessed as cell growth at 0.1 uM; assay type: functional; details: read-out: Activity
RXF 393 = test: Antitumor activity against human RXF393 cells assessed as cell growth at 0.1 uM; assay type: functional; details: read-out: Activity
ACHN = test: Antitumor activity against human ACHN cells assessed as cell growth at 0.1 uM; assay type: functional; details: read-out: Activity
CAKI-1 = test: Antitumor activity against human CAKI-1 cells assessed as cell growth at 0.1 uM; assay type: functional; details: read-out: Activity
A498 = test: Antitumor activity against human A498 cells assessed as cell growth at 0.1 uM; assay type: functional; details: read-out: Activity
SK-OV-3 = test: Antitumor activity against human SKOV3 cells assessed as cell growth at 0.1 uM; assay type: functional; details: read-out: Activity
NCI/ADR-RES = test: Antitumor activity against human NCI/ADR-RES cells assessed as cell growth at 0.1 uM; assay type: functional; details: read-out: Activity
OVCAR-8 = test: Antitumor activity against human OVCAR8 cells assessed as cell growth at 0.1 uM; assay type: functional; details: read-out: Activity
OVCAR-5 = test: Antitumor activity against human OVCAR5 cells assessed as cell growth at 0.1 uM; assay type: functional; details: read-out: Activity
OVCAR-3 = test: Antitumor activity against human OVCAR3 cells assessed as cell growth at 0.1 uM; assay type: functional; details: read-out: Activity
OVCAR-4 = test: Antitumor activity against human OVCAR4 cells assessed as cell growth at 0.1 uM; assay type: functional; details: read-out: Activity
IGROV-1 = test: Antitumor activity against human IGROV1 cells assessed as cell growth at 0.1 uM; assay type: functional; details: read-out: Activity
UACC-62 = test: Antitumor activity against human UACC62 cells assessed as cell growth at 0.1 uM; assay type: functional; details: read-out: Activity
UACC-257 = test: Antitumor activity against human UACC257 cells assessed as cell growth at 0.1 uM; assay type: functional; details: read-out: Activity
SK-MEL-5 = test: Antitumor activity against human SK-MEL-5 cells assessed as cell growth at 0.1 uM; assay type: functional; details: read-out: Activity
SK-MEL-28 = test: Antitumor activity against human SK-MEL-28 cells assessed as cell growth at 0.1 uM; assay type: functional; details: read-out: Activity
MDA-MB-435 = test: Antitumor activity against human MDA-MB-435 cells assessed as cell growth at 0.1 uM; assay type: functional; details: read-out: Activity
M14 = test: Antitumor activity against human M14 cells assessed as cell growth at 0.1 uM; assay type: functional; details: read-out: Activity
Malme-3M = test: Antitumor activity against human MALME-3M cells assessed as cell growth at 0.1 uM; assay type: functional; details: read-out: Activity
LOX IMVI = test: Antitumor activity against human LOXIMVI cells assessed as cell growth at 0.1 uM; assay type: functional; details: read-out: Activity
U-251 = test: Antitumor activity against human U251 cells assessed as cell growth at 0.1 uM; assay type: functional; details: read-out: Activity
SNB-75 = test: Antitumor activity against human SNB75 cells assessed as cell growth at 0.1 uM; assay type: functional; details: read-out: Activity
SF-539 = test: Antitumor activity against human SF539 cells assessed as cell growth at 0.1 uM; assay type: functional; details: read-out: Activity
SNB-19 = test: Antitumor activity against human SNB19 cells assessed as cell growth at 0.1 uM; assay type: functional; details: read-out: Activity
SF-295 = test: Antitumor activity against human SF295 cells assessed as cell growth at 0.1 uM; assay type: functional; details: read-out: Activity
SF-268 = test: Antitumor activity against human SF268 cells assessed as cell growth at 0.1 uM; assay type: functional; details: read-out: Activity
SW-620 = test: Antitumor activity against human SW620 cells assessed as cell growth at 0.1 uM; assay type: functional; details: read-out: Activity
HCT-15 = test: Antitumor activity against human HCT15 cells assessed as cell growth at 0.1 uM; assay type: functional; details: read-out: Activity
HT-29 = test: Antitumor activity against human HT-29 cells assessed as cell growth at 0.1 uM; assay type: functional; details: read-out: Activity
HCT-116 = test: Antitumor activity against human HCT116 cells assessed as cell growth at 0.1 uM; assay type: functional; details: read-out: Activity
[1] = Antitumor activity against human HCC2998 cells assessed as cell growth at 0.1 uM; assay type: functional; details: HCC 2998, read-out: Activity
NCI-H460 = test: Antitumor activity against human NCI-H460 cells assessed as cell growth at 0.1 uM; assay type: functional; details: read-out: Activity
NCI-H522 = test: Antitumor activity against human NCI-H522 cells assessed as cell growth at 0.1 uM; assay type: functional; details: read-out: Activity
NCI-H23 = test: Antitumor activity against human NCI-H23 cells assessed as cell growth at 0.1 uM; assay type: functional; details: read-out: Activity
NCI-H226 = test: Antitumor activity against human NCI-H226 cells assessed as cell growth at 0.1 uM; assay type: functional; details: read-out: Activity
HOP-62 = test: Antitumor activity against human HOP62 cells assessed as cell growth at 0.1 uM; assay type: functional; details: read-out: Activity
HOP-92 = test: Antitumor activity against human HOP92 cells assessed as cell growth at 0.1 uM; assay type: functional; details: read-out: Activity
[2] = Antitumor activity against human EKVX cells assessed as cell growth at 0.1 uM; assay type: functional; details: read-out: Activity
A549 = test: Antitumor activity against human A549/ATCC cells assessed as cell growth at 0.1 uM; assay type: functional; details: read-out: Activity
SR = test: Antitumor activity against human SR cells assessed as cell growth at 0.1 uM; assay type: functional; details: read-out: Activity
MOLT-4 = test: Antitumor activity against human MOLT4 cells assessed as cell growth at 0.1 uM; assay type: functional; details: read-out: Activity
RPMI-8226 = test: Antitumor activity against human RPMI8226 cells assessed as cell growth at 0.1 uM; assay type: functional; details: read-out: Activity
K562 = test: Antitumor activity against human K562 cells assessed as cell growth at 0.1 uM; assay type: functional; details: read-out: Activity
HL-60 = test: Antitumor activity against human HL60(TB) cells assessed as cell growth at 0.1 uM; assay type: functional; details: read-out: Activity
CCRF-CEM = test: Antitumor activity against human CCRF-CEM cells assessed as cell growth at 0.1 uM; assay type: functional; details: read-out: Activity
[3] = tested on: Mycobacterium tuberculosis; test: Antitubercular activity against Mycobacterium tuberculosis H37Rv assessed as growth inhibition after 12 to 28 days by L.J. agar MIC method; assay type: functional
Aspergillus clavatus = test: Antimicrobial activity against Aspergillus clavatus MTCC 1323 assessed as growth inhibition measured after overnight incubation by broth dilution method; assay type: functional
Aspergillus niger = test: Antimicrobial activity against Aspergillus niger MTCC 282 assessed as growth inhibition measured after overnight incubation by broth dilution method; assay type: functional
Candida albicans = test: Antimicrobial activity against Candida albicans MTCC 227 assessed as growth inhibition measured after overnight incubation by broth dilution method; assay type: functional
Pseudomonas aeruginosa = test: Antimicrobial activity against Pseudomonas aeruginosa MTCC 2488 assessed as growth inhibition measured after overnight incubation by broth dilution method; assay type: functional
Escherichia coli = test: Antimicrobial activity against Escherichia coli MTCC 443 assessed as growth inhibition measured after overnight incubation by broth dilution method; assay type: functional
Streptococcus pyogenes = test: Antimicrobial activity against Streptococcus pyogenes MTCC 442 assessed as growth inhibition measured after overnight incubation by broth dilution method; assay type: functional
Staphylococcus aureus = test: Antimicrobial activity against Staphylococcus aureus MTCC 96 assessed as growth inhibition measured after overnight incubation by broth dilution method; assay type: functional
MDA-MB-468 = test: Antitumor activity against human MDA-MB-468 cells assessed as cell growth at 0.1 uM; assay type: functional; details: read-out: Activity
T47D = test: Antitumor activity against human T47D cells assessed as cell growth at 0.1 uM; assay type: functional; details: read-out: Activity
[4] = Antitumor activity against human Hs 578T cells assessed as cell growth at 0.1 uM; assay type: functional; details: read-out: Activity
BT-549 = test: Antitumor activity against human BT549 cells assessed as cell growth at 0.1 uM; assay type: functional; details: read-out: Activity
MDA-MB-231 = test: Antitumor activity against human MDA-MB-231/ATCC cells assessed as cell growth at 0.1 uM; assay type: functional; details: read-out: Activity
DU-145 = test: Antitumor activity against human DU145 cells assessed as cell growth at 0.1 uM; assay type: functional; details: read-out: Activity
MCF7 = test: Antitumor activity against human MCF7 cells assessed as cell growth at 0.1 uM; assay type: functional; details: read-out: Activity
PC-3 = test: Antitumor activity against human PC3 cells assessed as cell growth at 0.1 uM; assay type: functional; details: read-out: Activity
SK-MEL-2 = test: cells; details: Homo sapiens, SK-MEL-2, read-out: Activity
Description: Antitumor activity against human SK-MEL-2 cells assessed as cell growth at 0.1 uM

Compound: Cc1ccc2sc(-c3ccc(NC(=O)CSc4nnc(-c5cccnc5SCc5ccccc5)o4)cc3)nc2c1
- growth at 0.1 µM (UO-31): 59.3%
- growth at 0.1 µM (TK-10): 118%
- growth at 0.1 µM (SN12C): 102%
- growth at 0.1 µM (RXF 393): 114%
- growth at 0.1 µM (ACHN): 90.8%
- growth at 0.1 µM (CAKI-1): 87.8%
- growth at 0.1 µM (A498): 105%
- growth at 0.1 µM (SK-OV-3): 105%
- growth at 0.1 µM (NCI/ADR-RES): 99.5%
- growth at 0.1 µM (OVCAR-8): 94.3%
- growth at 0.1 µM (OVCAR-5): 107%
- growth at 0.1 µM (OVCAR-3): 100%
- growth at 0.1 µM (OVCAR-4): 98.8%
- growth at 0.1 µM (IGROV-1): 99.7%
- growth at 0.1 µM (UACC-62): 104%
- growth at 0.1 µM (UACC-257): 113%
- growth at 0.1 µM (SK-MEL-5): 89.9%
- growth at 0.1 µM (SK-MEL-28): 114%
- growth at 0.1 µM (MDA-MB-435): 107%
- growth at 0.1 µM (M14): 97.4%
- growth at 0.1 µM (Malme-3M): 99.3%
- growth at 0.1 µM (LOX IMVI): 93.6%
- growth at 0.1 µM (U-251): 106%
- growth at 0.1 µM (SNB-75): 95.6%
- growth at 0.1 µM (SF-539): 92.9%
- growth at 0.1 µM (SNB-19): 104%
- growth at 0.1 µM (SF-295): 107%
- growth at 0.1 µM (SF-268): 91.6%
- growth at 0.1 µM (SW-620): 104%
- growth at 0.1 µM (HCT-15): 111%
- growth at 0.1 µM (HT-29): 100%
- growth at 0.1 µM (HCT-116): 95.4%
- growth at 0.1 µM [1]: 106%
- growth at 0.1 µM (NCI-H460): 101%
- growth at 0.1 µM (NCI-H522): 87.9%
- growth at 0.1 µM (NCI-H23): 96.6%
- growth at 0.1 µM (NCI-H226): 80.8%
- growth at 0.1 µM (HOP-62): 96.8%
- growth at 0.1 µM (HOP-92): 93.4%
- growth at 0.1 µM [2]: 89.9%
- growth at 0.1 µM (A549): 104%
- growth at 0.1 µM (SR): 82.6%
- growth at 0.1 µM (MOLT-4): 92.2%
- growth at 0.1 µM (RPMI-8226): 92.2%
- growth at 0.1 µM (K562): 101%
- growth at 0.1 µM (HL-60): 97.3%
- growth at 0.1 µM (CCRF-CEM): 93.1%
- growth inhibition (GI) [3]: 99%
- MIC ([3]; Mycobacterium tuberculosis, H37Rv): 62.5 µg/mL (≈ 107 µM)
- MIC (Aspergillus clavatus): 500 µg/mL (≈ 859 µM)
- MIC (Aspergillus niger): 1000 µg/mL (≈ 1720 µM)
- MIC (Candida albicans): 250 µg/mL (≈ 430 µM)
- MIC (Pseudomonas aeruginosa): 62.5 µg/mL (≈ 107 µM)
- MIC (Escherichia coli): 100 µg/mL (≈ 172 µM)
- MIC (Streptococcus pyogenes): 25 µg/mL (≈ 43 µM)
- MIC (Staphylococcus aureus): 100 µg/mL (≈ 172 µM)
- growth at 0.1 µM (MDA-MB-468): 92.2%
- growth at 0.1 µM (T47D): 87.8%
- growth at 0.1 µM [4]: 92.3%
- growth at 0.1 µM (BT-549): 91.6%
- growth at 0.1 µM (MDA-MB-231): 71.4%
- growth at 0.1 µM (DU-145): 87.5%
- growth at 0.1 µM (MCF7): 81.2%
- growth at 0.1 µM (PC-3): 91.8%
- growth at 0.1 µM (SK-MEL-2): 89.8%
